Tests used:
[1] = system: AR-FL, AR-V7 and AR-V9 mRNA expression; test: Low concentrations of FED and PAC on AR mRNA expression; format: cell-based; conditions: 0-0.6 μM
Experimental: As a preliminary study, we tested whether low contrations of FED and PAC (0, 0.01875, 0.0375, 0.075, 0.15, 0.3, 0.6 μM) reduce mRNA expression of full-length (AR-FL) and variant (AR-V7 and AR-V9) forms of AR.

[2] = system: AR mRNA and protein in PC cells that survive ENZ treatment; test: AR expression in CWR22PC cells surviving ENZ treatment; format: cell-based, human; conditions: ENZ 5 days, then PAC or FED for 4 days
[3] = system: CWR22Rv1 PC cells; test: Death / viability of CWR22Rv1 PC cells treated with Jak2 inhibitors; format: cell-based; conditions: 72 h; CWR22Rv1, at 3 days; read-out: IC50, induction of death of CWR22Rv1 PC cells
Experimental: (§1) We tested whether Stat5 regulation of AR mRNA and protein levels provides an opportunity to control AR levels pharmacologically by inhibition of Jak2 signaling. […] Finally, to evaluate the effect of PAC and FED on PC cell viability, CWR22Rv1 cells were treated with increasing concentrations of PAC or FED for 3 days.

[4] = system: AR protein levels in CWR22PC cells; test: Time-course of AR protein levels in CWR22PC cells; format: cell-based, human; conditions: timepoints 12-72 h
[5] = system: AR-FL, AR-V7 and AR-V9 expression and Stat5 phosphorylation in PC cell lines; test: Clinical grade versus research grade pacritinib: Stat5 phosphorylation and AR expression in PC cell lines; format: cell-based
Experimental: Control cells were treated with […] (ShCtrl).
The ability of clinical grade pacritinib (CTI Biopharma) to inhibit Stat5 phosphorylation and suppress AR expression in prostate cancer cells in vitro was compared to that of research grade pacritinib (MedChem Express (MCE)) and to cells in which Jak2 was knocked down using lentivirus expressing Jak2-shRNA (shJak2). […] Thus, clinical grade pacritinib induces the same effects as research grade pacrtinib, suppressing AR levels and reducing PC cell viability.

[6] = system: CWR22PC PC cells that survive treatment with ENZ; test: Viability of CWR22PC cells surviving ENZ treatment; format: cell-based, human; conditions: ENZ 5 days, then 300 nM for 4 days
Experimental: The PC cells were treated with ENZ (or vehicle) for 5 days, and were then treated with ENZ, vehicle, PAC, or FED for 4 days.
The effect of PAC and FED in blocking the growth of PC cells that survive treatment with the anti-androgen enzalutamide (ENZ) was tested in CWR22PC PC cells. The PC cells were treated in culture with ENZ (or vehicle) for 5 days, and were then treated with ENZ (40 μM), vehicle, PAC (300, 600 or 1200 nM), or FED (300, 600 or 1200 nM) for 4 days. […] Thus, PAC and FED can be used to reduce ENZ resistant PC cell growth.

[7] = system: AR mRNA and protein expression in CWR22PC cells; test: PAC and FED on AR expression after Stat5-shRNA in CWR22PC cells; format: cell-based, human; conditions: lentiviral Stat5-shRNA
Excerpt: We tested whether PAC and FED are able to further reduce AR mRNA and/or protein expression following genetic suppression of AR gene expression via lentiviral expression of Stat5-shRNA in CWR22PC cells.

[8] = system: androgen-responsive PC cell viability; test: PC cell viability time-course versus androgen withdrawal (crystal violet staining and cell counting); format: cell-based
Excerpt: Crystal violet staining and cell counting were used to compare PC viability over a time-course of 2-10 days between cells treated with ADT and control (+ADT), cells treated with PAC and control (+DMSO), cells treated with FED and control (+DMSO), cells treated with Jak2 knockdown (shJak2) and control (shCtrl), and cells treated with Stat5 knockdown (shStat5) and control (shCtrl).
Next, we compared the effect of androgen deprivation therapy (ADT) carried out by androgen withdrawal, which is the standard therapy used to treat advanced prostate, to the effect of PAC and FED on androgen-responsive PC cell viability over a time-course of 2-10 days using crystal violet staining and cell counting. Based on this analysis, ADT decreased cell viability by 30% compared to control (+DHT), PAC decreased cell viability by 82% after 4 days of treatment and by 96% after 6 days of treatment compared to the control (+DMSO), FED decreased cell viability by 87% after 4 days of treatment and by 98% after 6 days of treatment compared to control (+DMSO), Jak2 knockdown (shJak2) decreased cell viability by 92% after 4 days of lentivirus infection and by 95% after 6 days of lentivirus infection compared to control (shCtrl), and Stat5 knockdown (shStat5) decreased cell viability by 96% after 4 days of lentivirus infection and by 98% after 6 days of lentivirus infection compared to control (shCtrl) (FIG. 25).

[9] = system: FL-AR, AR-V7 and AR-V9 mRNA and AR protein levels in PC cells; test: AR mRNA (qRT-PCR) and AR / pYStat5 protein (immunoblot) in PC cells treated with Jak2 inhibitors; format: cell-based; conditions: CWR22Rv1 CRPC cell line, FIGS. 6A-6B
Experimental: Jak2 was inhibited for 3 days by Jak2 inhibitors AZD1480, gandotinib, pacritinib, baricitinib or fedratinib at indicated concentrations followed by RNA extraction and quantification of FL-AR, AR-V7 and AR-V9 mRNA levels by qRT-PCR.
Immunoblot analysis of AR expression in PC cells treated with increasing concentrations of Jak2 inhibitors AZD1480, gandotinib, pacritinib or baricitinib for 72 h.
as §1

[10] = system: FL-AR and AR-V protein levels in CWR22Rv1 cells; test: Pilot experiment: FED on AR protein levels in CWR22Rv1 cells (IB); format: cell-based; conditions: CWR22Rv1, 4 days
Excerpt: Jak2 was inhibited for 4 days by fedratinib (FED) at indicated concentrations followed by quantification of FL-AR, AR-V7 and AR-V9 protein levels by IB.
We conducted a pilot experiment to test the efficacy of FED in suppressing AR levels in PC cells (FIG. 16).

[11] = system: CWR22Rv1, CWR22Pc and LAPC4 cells; test: PC cell migration, Boyden chamber assay; format: cell-based; conditions: Fibronectin chemoattractant
Experimental: Stat5 was genetically knocked down by lentiviral expression of shStat5 with shCtrl as control for 3 days followed by treatment with ENZ (40 μM; CWR22Pc, CWR22Rv1; 20 μM LAPC-4) vs. DMSO for 10 days. Equivalent numbers of cells were plated to Boyden chamber inserts with Fibronectin as the chemoattractant in the bottom well, and the migrated cells were imaged and counted.
(§2) To evaluate if ENZ induces EMT and migration of PC cells in our hands, three different PC cell lines were treated with ENZ for 12 days and analyzed for the expression of EMT markers (N-cadherin, Vimentin and Twist1) by immunoprecipitation (IP) and western blotting (FIG. 13). […] The ENZ-induced PC cell migration was inhibited by genetic ablation of Stat5 by lentiviral expression of shStat5 vs. shCtrl (FIG. 14). Human CWR22Pc cells, when inoculated to the prostates of immunocompromised mice, form distant metastases in the liver in 8 weeks after orthotopic growth.

[12] = system: CRPC; conditions: cited from earlier work
[13] = system: Stat5 and Jak2 phosphorylation in PC cells; test: ENZ-induced Jak2-Stat5 phosphorylation in PC cells (IP and WB); format: cell-based
Experimental: CWR22Pc and LAPC4 PC cells were treated with ENZ or vehicle for the indicated periods of time. Levels of active Stat5 were determined by immunoprecipitation (IP) of Stat5 followed by immunoblotting (WB) for pStat5a/b and total Stat5. Whole cell lysates (WCL) were immunoblotted for pStat3, Stat3 and Actin. […] CWR22Pc and LAPC4 cells were transduced with lentiviral AR shRNA (shAR) or lenti-shCtrl for 3 days followed by treatment with ENZ or vehicle for 7 days at the indicated concentrations.
PC cells were cultured with ENZ or Jak2 inhibitor AZD1480 (800 nM) alone or in combination for 12 days. Expression levels of active Stat5 were determined by IP of Stat5 followed by WB for pStat5a/b and total Stat5. WCLs were immunoblotted for pStat3, Stat3 and Actin. […] Jak2 was suppressed by lentiviral Jak2 shRNA vs. shCtrl in PC cells for 3 days followed by ENZ or vehicle for 7 days. Active Stat5, Stat5 and Jak2 levels were evaluated by IP and WB, as depicted. […] PC cells were treated with ENZ or vehicle for 6 h at the indicated concentrations. Control cells were stimulated with prolactin (Prl) (10 nM) for 20 min as control for cytokine-induced Jak2 phosphorylation. […] Alternatively, PC cells were treated with ENZ or vehicle for 12 days or stimulated with Prl for 20 min at the indicated concentrations. Stat5 and Jak2 were IP:ed and WB:ed for pStat5, pJak2, tot Stat5, and total Jak2.
To investigate whether AR is required for ENZ induction of Stat5 signaling, we inhibited AR expression in CWR22Pc and LAPC4 cells by genetic knockdown using lentiviral expression of AR shRNA (FIG. 9C).
To further assess the involvement of Jak2 in ENZ-induced Stat5 activation, Jak2 was genetically knocked down by lentiviral expression of Jak2 shRNA in CWR22Pc and LAPC4 cells for 3 days followed by ENZ treatment for 7 days.

[14] = system: EMT markers (N-cadherin, Vimentin, Twist1, E-cadherin) in PC cell lines; test: EMT marker expression in PC cell lines treated with ENZ; format: cell-based; conditions: three PC cell lines, 12 days
Experimental: Lenti-viral expression of ShStat5 3 days prior to ENZ treatment (at indicated concentrations) blocked ENZ-induction of the EMT markers.
as §2

[15] = system: nuclear active Stat5 in PCs; test: Immunohistochemistry of active Stat5 in PCs of patients treated with ENZ; format: in vivo, human; conditions: biopsies of ENZ-treated PCs
Excerpt: We recently reported that ENZ induces a hyperactivated feed-forward Jak2-Stat5 signaling loop in PC to promote ENZ-resistant PC growth(50).

[16] = system: AR mRNA and protein levels in CWR22Pc tumors; test: AR levels in CWR22Pc xenograft tumors in nude mice; format: in vivo; conditions: 40 mg/kg i.p. daily for 40 days
Experimental: FIG. 4A. Pharmacological Stat5 inhibition decreases AR protein and mRNA levels in PC xenograft tumors in nude mice. Nuclear AR and Stat5 levels were detected by immunostaining of paraffin-embedded tissue sections of CWR22Pc tumors from mice treated with IST5-002 (IST5) (40 mg/kg; i.p.) for 40 days. Also, AR mRNA levels were evaluated by q-RT-PCR. FIG. 4B. Pharmacological inhibition of Stat5 by IST5-002 or pacritinib suppress AR mRNA levels in patient-derived PCs cultured ex vivo. Clinical PCs (n=4) obtained from prostatectomies were cultured for 7 days ex vivo in 3D tumor explant cultures in the presence of Stat5 inhibitor IST5-002 (12.5 μM) or PAC (1 μM) vs. vehicle, and AR mRNA levels were analyzed by qRT-PCR.
To evaluate whether Stat5 regulation of AR mRNA and protein levels is evident in an in vivo setting where PC cells were grown as xenograft tumors in mice, CWR22Pc cells (1.5×10^7) were inoculated subcutaneously into flanks of nude mice (one tumor/mouse). After tumors reached approximately 100 mm^3 in size (12 d), mice were treated daily for 40 days by intraperitoneal injection with IST5-002 (40 mg/kg body weight) or vehicle (0.3% hydroxypropyl cellulose/H2O) (5 mice/group). AR mRNA and protein levels were evaluated by q-RT-PCR(47) and by immunohistochemistry, as previously described(18, 45, 46, 48, 49).

C1=C/COCc2cc(ccc2OCCN2CCCC2)Nc2nccc(n2)-c2cccc(c2)COC/1 [pacritinib, (16E)-11-[2-(1-Pyrrolidinyl)ethoxy]-14,19-dioxa-5,7,26-triazatetracyclo[19.3.1.12,6.18,12]heptacosa-1(25),2(26),3,5,8,10,12(27),16,21,23-decaene]
mRNA expression of AR-FL, AR-V7 and AR-V9 versus concentration [1]: AR expression levels decrease with increased concentrations | AR expression at mRNA and protein level in PC cells that survive ENZ treatment [2]: reduces expression of AR at both the mRNA and protein level | IC50 [3]: 300 nM | time after treatment at which AR protein levels start to decrease [4]: 48 h | efficacy in suppressing AR protein expression relative to research grade pacritinib ([5]; CWR22PC and CWR22Rv1, FIG. 18): has higher efficacy than research grade pacritinib (MCE) | phosphorylation of Stat5 ([5]; CWR22Pc, LAPC4): decreases phosphorylation of Stat5 | AR expression at the protein level ([5]; CWR22Rv1 and CWR22PC): caused a reduction in AR expression at the protein level | mRNA expression of AR-FL, AR-V7 and AR-V9 ([5]; CWR22Rv1 and CWR22PC): reduced mRNA expression levels of both full-length (AR-FL) and variant (AR-V7 and AR-V9) forms of AR | efficacy in suppressing AR mRNA expression relative to research grade pacritinib ([5]; CWR22Rv1 and CWR22PC, FIG. 17): has higher efficacy than research grade pacritinib (MCE) | growth / viability of PC cells surviving ENZ treatment [6]: able to block the growth PC cells surviving ENZ treatment with very high efficacy | further reduction of AR mRNA/protein expression after Stat5-shRNA [7]: no further decrease in AR expression levels | decrease in cell viability compared to control (+DMSO) ([8]; after 4 days of treatment): 82% | decrease in cell viability compared to control (+DMSO) ([8]; after 6 days of treatment): 96% | FL and AR-V AR mRNA and protein levels [9]: dose-dependent reduction

Cc1cnc(Nc2ccc(OCCN3CCCC3)cc2)nc1Nc1cccc(S(=O)(=O)NC(C)(C)C)c1 [fedratinib, N-tert-Butyl-3-{5-methyl-2-[4-(2-pyrrolidin-1-yl-ethoxy)-phenylamino]-pyrimidin-4-ylamino}-benzenesulfonamide]
FL-AR and AR-V protein levels [10]: depletes FL-AR and AR-V protein levels almost entirely | mRNA expression of AR-FL, AR-V7 and AR-V9 versus concentration [1]: AR expression levels decrease with increased concentrations | AR expression at mRNA and protein level in PC cells that survive ENZ treatment [2]: reduces expression of AR at both the mRNA and protein level | IC50 [3]: 300 nM | growth / viability of PC cells surviving ENZ treatment [6]: able to block the growth PC cells surviving ENZ treatment with very high efficacy | further reduction of AR mRNA/protein expression after Stat5-shRNA [7]: no further decrease in AR expression levels | decrease in cell viability compared to control (+DMSO) ([8]; after 4 days of treatment): 87% | decrease in cell viability compared to control (+DMSO) ([8]; after 6 days of treatment): 98% | FL and AR-V AR mRNA and protein levels [9]: dose-dependent reduction

CNC(=O)c1ccc(N2C(=S)N(c3ccc(C#N)c(C(F)(F)F)c3)C(=O)C2(C)C)cc1F [ENZ, 4-(3-(4-cyano-3-(trifluoromethyl)phenyl)-5,5-dimethyl-4-oxo-2-thioxoimidazolidin-1-yl)-2-fluoro-N-methylbenzamide]
migration of PC cell lines [11]: induces a robust migration | improvement in survival of PC patients [12]: 4-6 months | Stat5 phosphorylation in PC cell lines ([13]; FIG. 9): induced a robust Stat5 phosphorylation | phosphorylation of Jak2 in PC cells ([13]; FIGS. 10C-10D): induced robust phosphorylation of Jak2 | expression of EMT markers [14]: induced the expression of N-cadherin, Vimentin and Twist1, while suppressing E-cadherin expression | levels of nuclear active Stat5 versus hormone-naïve PCs [15]: significantly (p<0.0001) elevated

O=P(O)(O)OC[C@H]1O[C@@H](n2cnc3c(NCc4ccccc4)ncnc32)[C@H](O)[C@@H]1O [IST5-002]
AR mRNA and protein expression in PC tumors in vivo [16]: marked decrease in AR mRNA and protein expression
